Results published in US20260166128A1, “HUMAN AMYLIN ANALOG, AND DERIVATIVE THEREOF AND USE THEREOF” (priority 2022, published 2026).
Numbered stars: 1 amine (or outer) side, 2 acyl side, 3 side chain; on linkers, the order of the positions; unused ones are H or OH. Bridge positions count the residues as written; N and C are the ends. Square brackets hold non-standard residues; d marks the D form. Side chains are listed from the residue outwards. Peptide text beside a SMILES is read from it. * marks the point of attachment. C20 diacid = O=C(O)CCCCCCCCCCCCCCCCCCC(=O)*; C18 diacid = O=C(O)CCCCCCCCCCCCCCCCC(=O)*; γGlu = O=C(O)[C@H](CCC(=O)[*:2])N[*:1]; Hyp = O=C(O)[C@@H]1C[C@@H](O)CN1; AEEA = NCCOCCOCC(=O)O

Tests used:
[1] = biological target: T1, human amylin receptor (Homo sapiens, UniProt O60896+P30988); test: Luciferase assay of amylin derivatives in amylin receptor/CRE-luc CHO cell line; assay type: cell-based; settings: CHO-K1/Ga15/AMY3 CRE-luc cells, 24 hours incubation, F12 medium containing 10% FBS; read-out: EC50
T1 construct: host or cells: CHO-K1/Ga15/AMY3 cells, further stably transfected with a CRE-luciferase plasmid
T1 sequence (P30988 25-474): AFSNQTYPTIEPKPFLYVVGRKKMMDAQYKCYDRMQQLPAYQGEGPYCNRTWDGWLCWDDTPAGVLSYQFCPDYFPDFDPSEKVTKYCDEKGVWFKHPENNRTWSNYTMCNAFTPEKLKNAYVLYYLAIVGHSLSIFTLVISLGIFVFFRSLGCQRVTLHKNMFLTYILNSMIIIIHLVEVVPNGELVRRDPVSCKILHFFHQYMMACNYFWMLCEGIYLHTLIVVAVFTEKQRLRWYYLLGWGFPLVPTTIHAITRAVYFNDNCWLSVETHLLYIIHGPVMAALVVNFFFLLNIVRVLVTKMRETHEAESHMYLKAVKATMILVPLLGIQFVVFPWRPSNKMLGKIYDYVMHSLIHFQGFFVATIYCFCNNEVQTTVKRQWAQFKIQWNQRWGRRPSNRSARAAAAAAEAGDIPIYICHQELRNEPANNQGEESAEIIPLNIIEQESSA
T1 sequence (O60896 24-148 partner): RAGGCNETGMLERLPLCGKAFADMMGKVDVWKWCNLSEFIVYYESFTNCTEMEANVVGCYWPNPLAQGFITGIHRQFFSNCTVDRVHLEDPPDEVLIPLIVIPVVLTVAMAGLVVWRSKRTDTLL
Method: The experiment was intended to detect the activity or efficacy of the amylin derivatives on a human amylin receptor in vitro by luciferase assay.
50 μL of growth medium (F12 medium containing 10% FBS) was added into each well of a white 96-well plate, and the stably transfected amylin/CRE-lue CHO cells were inoculated into the white 96-well plate at a density of about 20,000 cells/well for activity determination.

[2] = Freeze-thaw stability of derivatives (freeze-thaw yield by liquid chromatography); assay type: physicochemical; settings: for Dissolution property: appearance after dissolution at 0.2 mg/ml in 20 mM phosphate buffer solution (PB) (pH 7.0); for Freeze storage property: appearance after overnight storage at −20° C. and thawing to room temperature, 0.2 mg/ml in 20 mM PB (pH 7.0); for Freeze storage yield: concentration of polypeptide after freezing and thawing / concentration before, by liquid chromatography, −20° C. overnight
In short: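 Lyophilised peptide derivative dissolved at 0.2 mg/ml in 20 mM phosphate buffer, pH 7.0, frozen overnight at −20° C, then thawed at room temperature. Peptide concentration before and after freeze-thaw measured by reversed-phase HPLC on centrifuged supernatant; yield = post-thaw/pre-thaw concentration.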

| EC50 [1] [pM] | Dissolution property [2] | Freeze storage property [2] | Freeze storage yield [2] [%] | Structure (SMILES) |
| --- | --- | --- | --- | --- |
| 29 | Clear | Clear | 101.02 | CC[C@H](C)[C@H](NC(=O)[C@@H]1CCCN1C(=O)CNC(=O)[C@H](CC(C)C)NC(=O)[C@H](CC(N)=O)NC(=O)[C@H](CCCCNC(=O)COCCOCCNC(=O)CC[C@H](NC(=O)CCCCCCCCCCCCCCCCCCC(=O)O)C(=O)O)NC(=O)[C@H](CO)NC(=O)[C@H](CO)NC(=O)[C@H](Cc1c[nH]cn1)NC(=O)[C@H](CCCNC(=N)N)NC(=O)[C@H](CC(C)C)NC(=O)[C@H](Cc1ccccc1)NC(=O)[C@H](CC(=O)O)NC(=O)[C@H](C)NC(=O)[C@H](CC(C)C)NC(=O)[C@H](CCCNC(=N)N)NC(=O)[C@H](CCC(N)=O)NC(=O)[C@@H](NC(=O)[C@H](C)NC(=O)[C@@H]1CSSC[C@H](NC(=O)[C@@H](N)CCCNC(=N)N)C(=O)N[C@@H](CC(N)=O)C(=O)N[C@@H]([C@@H](C)O)C(=O)N[C@@H](C)C(=O)N[C@@H]([C@@H](C)O)C(=O)N1)[C@@H](C)O)C(=O)N[C@@H](CC(C)C)C(=O)N1CCC[C@H]1C(=O)N1CCC[C@H]1C(=O)N[C@H](C(=O)N[C@@H](CC(N)=O)C(=O)N[C@H](C(=O)NCC(=O)N[C@@H](CO)C(=O)N[C@@H](CC(N)=O)C(=O)N[C@H](C(=O)N1C[C@H](O)C[C@H]1C(N)=O)[C@@H](C)O)C(C)C)[C@@H](C)O [PD114] (H-RCNTATCATQRLADFLRHSSK([AEEA-γGlu-C20 diacid])NLGPILPPTNVGSNT[Hyp]-NH2; disulfide 2-7 (inferred); N-terminus assumed) |
| 14 | Clear | Clear | 93.49 | CC[C@H](C)[C@H](NC(=O)[C@@H]1CCCN1C(=O)CNC(=O)[C@H](CC(C)C)NC(=O)[C@H](CC(N)=O)NC(=O)[C@H](CC(N)=O)NC(=O)[C@H](CCCCNC(=O)COCCOCCNC(=O)CC[C@H](NC(=O)CCCCCCCCCCCCCCCCC(=O)O)C(=O)O)NC(=O)[C@H](CO)NC(=O)[C@H](Cc1c[nH]cn1)NC(=O)[C@H](CCCNC(=N)N)NC(=O)[C@H](CC(C)C)NC(=O)[C@H](Cc1ccccc1)NC(=O)[C@H](CC(=O)O)NC(=O)[C@H](C)NC(=O)[C@H](CC(C)C)NC(=O)[C@H](CCCNC(=N)N)NC(=O)[C@H](CCC(N)=O)NC(=O)[C@@H](NC(=O)[C@H](C)NC(=O)[C@@H]1CSSC[C@H](NC(=O)[C@@H](N)CCCNC(=N)N)C(=O)N[C@@H](CC(N)=O)C(=O)N[C@@H]([C@@H](C)O)C(=O)N[C@@H](C)C(=O)N[C@@H]([C@@H](C)O)C(=O)N1)[C@@H](C)O)C(=O)N[C@@H](CC(C)C)C(=O)N1CCC[C@H]1C(=O)N1CCC[C@H]1C(=O)N[C@H](C(=O)N[C@@H](CC(N)=O)C(=O)N[C@H](C(=O)NCC(=O)N[C@@H](CO)C(=O)N[C@@H](CC(N)=O)C(=O)N[C@H](C(=O)N1C[C@H](O)C[C@H]1C(N)=O)[C@@H](C)O)C(C)C)[C@@H](C)O [PD117] (H-RCNTATCATQRLADFLRHSK([AEEA-γGlu-C18 diacid])NNLGPILPPTNVGSNT[Hyp]-NH2; disulfide 2-7 (inferred); N-terminus assumed) |
| 24 | Clear | Clear | 103.04 | CC[C@H](C)[C@H](NC(=O)[C@@H]1CCCN1C(=O)CNC(=O)[C@H](CC(C)C)NC(=O)[C@H](CC(N)=O)NC(=O)[C@H](CC(N)=O)NC(=O)[C@H](CO)NC(=O)[C@H](CCCCNC(=O)COCCOCCNC(=O)CC[C@H](NC(=O)CCCCCCCCCCCCCCCCC(=O)O)C(=O)O)NC(=O)[C@H](Cc1c[nH]cn1)NC(=O)[C@H](CCCNC(=N)N)NC(=O)[C@H](CC(C)C)NC(=O)[C@H](Cc1ccccc1)NC(=O)[C@H](CC(=O)O)NC(=O)[C@H](C)NC(=O)[C@H](CC(C)C)NC(=O)[C@H](CCCNC(=N)N)NC(=O)[C@H](CCC(N)=O)NC(=O)[C@@H](NC(=O)[C@H](C)NC(=O)[C@@H]1CSSC[C@H](NC(=O)[C@@H](N)CCCNC(=N)N)C(=O)N[C@@H](CC(N)=O)C(=O)N[C@@H]([C@@H](C)O)C(=O)N[C@@H](C)C(=O)N[C@@H]([C@@H](C)O)C(=O)N1)[C@@H](C)O)C(=O)N[C@@H](CC(C)C)C(=O)N1CCC[C@H]1C(=O)N1CCC[C@H]1C(=O)N[C@H](C(=O)N[C@@H](CC(N)=O)C(=O)N[C@H](C(=O)NCC(=O)N[C@@H](CO)C(=O)N[C@@H](CC(N)=O)C(=O)N[C@H](C(=O)N1C[C@H](O)C[C@H]1C(N)=O)[C@@H](C)O)C(C)C)[C@@H](C)O [PD119] (H-RCNTATCATQRLADFLRHK([AEEA-γGlu-C18 diacid])SNNLGPILPPTNVGSNT[Hyp]-NH2; disulfide 2-7 (inferred); N-terminus assumed) |
| 23 | Clear | Clear | 103.41 | CC[C@H](C)[C@H](NC(=O)[C@H](CCCCNC(=O)COCCOCCNC(=O)CC[C@H](NC(=O)CCCCCCCCCCCCCCCCCCC(=O)O)C(=O)O)NC(=O)CNC(=O)[C@H](CC(C)C)NC(=O)[C@H](CC(N)=O)NC(=O)[C@H](CC(N)=O)NC(=O)[C@H](CO)NC(=O)[C@H](CO)NC(=O)[C@H](Cc1c[nH]cn1)NC(=O)[C@H](CCCNC(=N)N)NC(=O)[C@H](CC(C)C)NC(=O)[C@H](Cc1ccccc1)NC(=O)[C@H](CC(=O)O)NC(=O)[C@H](C)NC(=O)[C@H](CC(C)C)NC(=O)[C@H](CCCNC(=N)N)NC(=O)[C@H](CCC(N)=O)NC(=O)[C@@H](NC(=O)[C@H](C)NC(=O)[C@@H]1CSSC[C@H](NC(=O)[C@@H](N)CCCNC(=N)N)C(=O)N[C@@H](CC(N)=O)C(=O)N[C@@H]([C@@H](C)O)C(=O)N[C@@H](C)C(=O)N[C@@H]([C@@H](C)O)C(=O)N1)[C@@H](C)O)C(=O)N[C@@H](CC(C)C)C(=O)N1CCC[C@H]1C(=O)N1CCC[C@H]1C(=O)N[C@H](C(=O)N[C@@H](CC(N)=O)C(=O)N[C@H](C(=O)NCC(=O)N[C@@H](CO)C(=O)N[C@@H](CC(N)=O)C(=O)N[C@H](C(=O)N1C[C@H](O)C[C@H]1C(N)=O)[C@@H](C)O)C(C)C)[C@@H](C)O [PD120] (H-RCNTATCATQRLADFLRHSSNNLGK([AEEA-γGlu-C20 diacid])ILPPTNVGSNT[Hyp]-NH2; disulfide 2-7 (inferred); N-terminus assumed) |
| 68 | Clear | Clear | 102.11 | CC[C@H](C)[C@H](NC(=O)[C@@H]1CCCN1C(=O)CNC(=O)[C@H](CC(C)C)NC(=O)[C@H](CC(N)=O)NC(=O)[C@H](CC(N)=O)NC(=O)[C@H](CO)NC(=O)[C@H](CO)NC(=O)[C@H](Cc1c[nH]cn1)NC(=O)[C@H](CCCNC(=N)N)NC(=O)[C@H](CC(C)C)NC(=O)[C@H](Cc1ccccc1)NC(=O)[C@H](CC(=O)O)NC(=O)[C@H](C)NC(=O)[C@H](CC(C)C)NC(=O)[C@H](CCCNC(=N)N)NC(=O)[C@H](CCC(N)=O)NC(=O)[C@@H](NC(=O)[C@H](C)NC(=O)[C@@H]1CSSC[C@H](NC(=O)[C@H](CCCCN)NC(=O)COCCOCCNC(=O)COCCOCCNC(=O)CC[C@H](NC(=O)CCCCCCCCCCCCCCCCCCC(=O)O)C(=O)O)C(=O)N[C@@H](CC(N)=O)C(=O)N[C@@H]([C@@H](C)O)C(=O)N[C@@H](C)C(=O)N[C@@H]([C@@H](C)O)C(=O)N1)[C@@H](C)O)C(=O)N[C@@H](CC(C)C)C(=O)N1CCC[C@H]1C(=O)N1CCC[C@H]1C(=O)N[C@H](C(=O)N[C@@H](CC(N)=O)C(=O)N[C@H](C(=O)NCC(=O)N[C@@H](CO)C(=O)N[C@@H](CC(N)=O)C(=O)N[C@H](C(=O)N1C[C@H](O)C[C@H]1C(N)=O)[C@@H](C)O)C(C)C)[C@@H](C)O [PD123] ({C20 diacid-γGlu-AEEA-AEEA}-KCNTATCATQRLADFLRHSSNNLGPILPPTNVGSNT[Hyp]-NH2; disulfide 2-7 (inferred)) |
| 10 | Clear | Clear | 95.59 | CC[C@H](C)[C@H](NC(=O)[C@@H]1CCCN1C(=O)CNC(=O)[C@H](CC(C)C)NC(=O)[C@H](CC(N)=O)NC(=O)[C@H](CC(N)=O)NC(=O)[C@H](CO)NC(=O)[C@H](CO)NC(=O)[C@H](Cc1c[nH]cn1)NC(=O)[C@H](CCCNC(=N)N)NC(=O)[C@H](CC(C)C)NC(=O)[C@H](Cc1ccccc1)NC(=O)[C@H](CC(=O)O)NC(=O)[C@H](C)NC(=O)[C@H](CC(C)C)NC(=O)[C@H](CCCNC(=N)N)NC(=O)[C@H](CCC(N)=O)NC(=O)[C@@H](NC(=O)[C@H](C)NC(=O)[C@@H]1CSSC[C@H](NC(=O)[C@H](CCCCN)NC(=O)COCCOCCNC(=O)CC[C@H](NC(=O)CCCCCCCCCCCCCCCCC(=O)O)C(=O)O)C(=O)N[C@@H](CC(N)=O)C(=O)N[C@@H]([C@@H](C)O)C(=O)N[C@@H](C)C(=O)N[C@@H]([C@@H](C)O)C(=O)N1)[C@@H](C)O)C(=O)N[C@@H](CC(C)C)C(=O)N1CCC[C@H]1C(=O)N1CCC[C@H]1C(=O)N[C@H](C(=O)N[C@@H](CC(N)=O)C(=O)N[C@H](C(=O)NCC(=O)N[C@@H](CO)C(=O)N[C@@H](CC(N)=O)C(=O)N[C@H](C(=O)N1C[C@H](O)C[C@H]1C(N)=O)[C@@H](C)O)C(C)C)[C@@H](C)O [PD125] ({C18 diacid-γGlu-AEEA}-KCNTATCATQRLADFLRHSSNNLGPILPPTNVGSNT[Hyp]-NH2; disulfide 2-7 (inferred)) |
